Results as given in patent US20250268857A1 (priority 2020, published 2025).
Several values for one entry are separate records, joined by “and”; a condition that tells them apart may be missing. Identical values can stand only once. Like-named read-outs stand apart in the source and are kept apart here.

Columns and labels:
[1] = tested on: avian influenza virus (A/whistling swan/Shimane/499/83 (H5N3)); type: cell-based; details: reacted 10 minutes at room temperature (20° C.), sterile distilled water control 7.75
[2] = tested on: influenza A virus (Kumamoto/Y5/67 (H2/N2)); design: species or system guinea pigs; details: guinea pig, in vivo
[3] = type: physicochemical; details: samples with 2,000 to 30,000 ppm zinc gluconate
Excerpt: Zinc oxide nanoparticles having a diameter of 50 to 70 nm were dispersed and stirred into an aqueous solution at room temperature while the solution temperature was prevented from exceeding room temperature. The aqueous solution contained 50% of organic acid (gluconic acid in the embodiment) that partially lactonizes when dissolved in water.

[4] = tested on: human influenza viruses and avian influenza viruses with different anti-HN types (H1N1, H1N1 subtype, and H7N7); type: cell-based, influenza virus; details: zinc gluconate concentration of 7,500 ppm
[5] = tested on: feline coronavirus (Feline Enteric Coronavirus, WSU 79-1683); assay: Coronavirus inactivation test (titration on Felis catus whole fetus cells); type: cell-based; details: 7500 ppm aqueous solution of zinc gluconate; in 30 minutes
Description: First, 0.9 ml of 7500 ppm of aqueous solution of zinc gluconate (phosphate buffered saline (PBS) was used for comparison) used as a sample solution and 0.1 ml of feline coronavirus solution (Feline Enteric Coronavirus, WSU 79-1683, 1.3× 10^5 EID50/0.1 ml) were mixed in a vortex mixer and reacted at room temperature (20° C.) for 30 minutes. The mixture solution of the sample and the virus was diluted to 100 times with a 5-times diluted Soybean-Casein Digest Broth with Lecithin & Polysorbate 80 (SCDLP) to stop the reaction and obtain a sample for measuring virus infection values.
Felis catus whole fetus cells used for testing were pre-seeded in 96-well plates and cultured in a CO2 incubator for 4 days. After this, the culture supernatant was removed and replaced with Dulbecco's Modified Eagle's medium containing 1% fetal bovine serum (available from Nissui Pharmaceutical Co., Ltd.).
The wells from which the culture medium had been removed were inoculated with 25 μl of the above sample for measuring virus infection values or with a 10-fold dilution of this in PBS, and the virus was allowed to infect the cells at 37° C. for 1 hour. […] After incubation, the cytopathic effect caused by virus growth was observed under a microscope, and the virus infection titer was calculated by the Reed and Muench method.

feline caliciviruses = type: cell-based, feline calicivirus

In the case of zinc gluconate, the “Virus Infectivity Titer” value ([1]; zinc gluconate 2,000 ppm) is reported as 6.25 log EID50/0.1 ml, the “Virus Infectivity Titer” value ([1]; zinc gluconate 3,750 ppm) is reported as 4.5 log EID50/0.1 ml and the “Virus Infectivity Titer” value ([1]; zinc gluconate 5,000 ppm) is reported as 3.5 log EID50/0.1 ml. For the same substance, the “Virus Infectivity Titer” value ([1]; zinc gluconate 7,500 ppm) was 2.25 log EID50/0.1 ml, the “Virus Infectivity Titer” value ([1]; zinc gluconate 10,000 ppm) was 2.5 log EID50/0.1 ml and the “Virus Infectivity Titer” value ([1]; zinc gluconate 30,000 ppm) was 5.75 log EID50/0.1 ml. The Infection rate [2] was 4/10 and 1/10 and 3/10, the pH [3] was 3.6 and the “reduction in infectivity titer” value [4] was “same reduction in infectivity titer”. The “titer reduced to (fraction)” value [5] was 1/100 and the “reduction in infectivity titer” value (feline caliciviruses) was 94%.
